# In US8163793B2, “Proline derivatives” (Hoffman-La Roche Inc., priority 2009, dated 2012):
# Legend:
# Cat L = Cat L (UniProt P07711); assay: Cathepsin enzyme inhibition assay (fluorogenic peptide substrate Z-Val-Val-Arg-AMC), Cathepsin L; assay type: biochemical, human and mouse; settings: enzyme 1 nM, substrate 20 μM, pH 6.5; read-out: CatL IC50
# Procedure, shortened: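 Cathepsin L at 1 nM was mixed with compound, then started with 20 μM Z-Val-Val-Arg-AMC in pH 6.5 potassium phosphate with EDTA, Triton X-100 and 5 mM DTT. AMC fluorescence (ex 360/em 465 nm) was followed over 20 min. IC50 is given in μM.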
# Cathepsin S = Cathepsin S (UniProt P25774); assay: Cathepsin enzyme inhibition assay (fluorogenic peptide substrate Z-Val-Val-Arg-AMC), Cathepsin S; assay type: biochemical, human and mouse; settings: enzyme 1 nM, substrate 20 μM, pH 6.5; read-out: CatS IC50
# Procedure, shortened: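 Human or mouse cathepsin S (1 nM) was run in 100 mM potassium phosphate pH 6.5 with 5 mM EDTA, 0.001% Triton X-100 and 5 mM DTT. The rise in AMC fluorescence from cleavage was measured, and IC50 values were calculated by standard methods and expressed in μM.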
IC50 (Cat L) [nM],IC50 (Cathepsin S) [nM],SMILES
27000,12,"Cc1cc(N2C[C@H](S(=O)(=O)c3ccccc3)C[C@H]2C(=O)NC2(C#N)CC2)n(-c2ccc(C(F)(F)F)cc2)n1 [Example 261, (2S,4R)-4-Benzenesulfonyl-1-[5-methyl-2-(4-trifluoromethyl-phenyl)-2H-pyrazol-3-yl]-pyrrolidine-2-carboxylic acid (1-cyano-cyclopropyl)-amide]"
28700,4.4,"Cc1cc(N2C[C@H](S(=O)(=O)c3ccccc3)C[C@H]2C(=O)NC2(C#N)CC2)n(-c2ccnc(Cl)c2)n1 [Example 262, (2S,4R)-4-Benzenesulfonyl-1-[2-(2-chloro-pyridin-4-yl)-5-methyl-2H-pyrazol-3-yl]-pyrrolidine-2-carboxylic acid (1-cyano-cyclopropyl)-amide]"
8380,0.495,"CC(C)(C)OC(=O)N[C@H]1CC[C@H](CC(=O)N2C[C@H](S(=O)(=O)c3ccc(OCC(F)(F)F)cc3Cl)C[C@H]2C(=O)NC2(C#N)CC2)CC1 [Example 264, (4-{2-[(2S,4R)-4-[2-Chloro-4-(2,2,2-trifluoro-ethoxy)-benzenesulfonyl]-2-(1-cyano-cyclopropylcarbamoyl)-pyrrolidin-1-yl]-2-oxo-ethyl}-cyclohexyl)-carbamic Acid Tert-butyl ester]"
2050,1.35,"N#CC1(NC(=O)[C@@H]2C[C@@H](S(=O)(=O)c3ccc(OCC(F)(F)F)cc3Cl)CN2C(=O)C[C@H]2CC[C@H](N)CC2)CC1 [Example 265, (2S,4R)-1-[2-(4-Amino-cyclohexyl)-acetyl]-4-[2-chloro-4-(2,2,2-trifluoro-ethoxy)-benzenesulfonyl]-pyrrolidine-2-carboxylic acid (1-cyano-cyclopropyl)-amide]"
22100,1.3,"Cc1cc(N2C[C@H](S(=O)(=O)c3ccc(F)cc3C(F)(F)F)C[C@H]2C(=O)NC2(C#N)CC2)n(-c2ccnc(Cl)c2)n1 [Example 266, (2S,4R)-1-[2-(2-Chloro-pyridin-4-yl)-5-methyl-2H-pyrazol-3-yl]-4-(4-fluoro-2-trifluoromethyl-benzenesulfonyl)-pyrrolidine-2-carboxylic acid (1-cyano-cyclopropyl)-amide]"
7810,2.3,"Cc1cc(N2C[C@H](S(=O)(=O)c3ccc(F)cc3C(F)(F)F)C[C@H]2C(=O)NC2(C#N)CC2)n(-c2ccc(C(F)(F)F)cc2)n1 [Example 267, (2S,4R)-4-(4-Fluoro-2-trifluoromethyl-benzenesulfonyl)-1-[5-methyl-2-(4-trifluoromethyl-phenyl)-2H-pyrazol-3-yl]-pyrrolidine-2-carboxylic acid (1-cyano-cyclopropyl)-amide]"
47300,2.35,"Cc1cc(N2C[C@H](S(=O)(=O)c3ccccc3C(F)(F)F)C[C@H]2C(=O)NC2(C#N)CC2)n(C(C)C)n1 [Example 268, (2S,4R)-1-(2-Isopropyl-5-methyl-2H-pyrazol-3-yl)-4-(2-trifluoromethyl-benzenesulfonyl)-pyrrolidine-2-carboxylic acid (1-cyano-cyclopropyl)-amide]"
75100,1.6,"Cc1cc(N2C[C@H](S(=O)(=O)c3ccccc3C(F)(F)F)C[C@H]2C(=O)NC2(C#N)CC2)n(CC(F)(F)F)n1 [Example 269, (2S,4R)-1-[5-Methyl-2-(2,2,2-trifluoro-ethyl)-2H-pyrazol-3-yl]-4-(2-trifluoromethyl-benzenesulfonyl)-pyrrolidine-2-carboxylic acid (1-cyano-cyclopropyl)-amide]"
≥ 25000,0.395,"CC1(C(=O)N2C[C@H](S(=O)(=O)c3ccc(Br)cc3C(F)(F)F)C[C@H]2C(=O)NC2(C#N)CC2)CC1 [Example 270, (2S,4R)-4-(4-Bromo-2-trifluoromethyl-benzenesulfonyl)-1-(1-methyl-cyclopropanecarbonyl)-pyrrolidine-2-carboxylic acid (1-cyano-cyclopropyl)-amide]"
85600,1.75,"CC1(C(=O)N2C[C@H](S(=O)(=O)c3ccc(C4CC4)cc3C(F)(F)F)C[C@H]2C(=O)NC2(C#N)CC2)CC1 [Example 271, (2S,4R)-4-(4-Cyclopropyl-2-trifluoromethyl-benzenesulfonyl)-1-(1-methyl-cyclopropanecarbonyl)-pyrrolidine-2-carboxylic acid (1-cyano-cyclopropyl)-amide]"
17100,0.6,"CN1CCN(c2ccc(S(=O)(=O)[C@@H]3C[C@@H](C(=O)NC4(C#N)CC4)N(C(=O)C4(C)CC4)C3)c(C(F)(F)F)c2)CC1 [Example 272, (2S,4R)-1-(1-Methyl-cyclopropanecarbonyl)-4-[4-(4-methyl-piperazin-1-yl)-2-trifluoromethyl-benzenesulfonyl]-pyrrolidine-2-carboxylic acid (1-cyano-cyclopropyl)-amide]"
8.06,0.29,"N#CC1(NC(=O)[C@@H]2C[C@@H](S(=O)(=O)c3ccc(OCC(F)(F)F)cc3Cl)CN2C(=O)C2(c3ccc(Br)cc3)CC2)CC1 [Example 273, (2S,4R)-1-[1-(4-Bromo-phenyl)-cyclopropanecarbonyl]-4-[2-chloro-4-(2,2,2-trifluoro-ethoxy)-benzenesulfonyl]-pyrrolidine-2-carboxylic acid (1-cyano-cyclopropyl)-amide]"
9130,0.935,"CC(=O)N[C@H]1CC[C@H](CC(=O)N2C[C@H](S(=O)(=O)c3ccc(OCC(F)(F)F)cc3Cl)C[C@H]2C(=O)NC2(C#N)CC2)CC1 [Example 274, (2S,4R)-1-[2-(4-Acetylamino-cyclohexyl)-acetyl]-4-[2-chloro-4-(2,2,2-trifluoro-ethoxy)-benzenesulfonyl]-pyrrolidine-2-carboxylic acid (1-cyano-cyclopropyl)-amide]"
2680,0.38,"N#CC1(NC(=O)[C@@H]2C[C@@H](S(=O)(=O)c3ccc(OCC(F)(F)F)cc3Cl)CN2C(=O)C(c2ccc(Cl)cc2)c2ccc(Cl)cc2)CC1 [Example 275, (2S,4R)-1-[2,2-Bis-(4-chloro-phenyl)-acetyl]-4-[2-chloro-4-(2,2,2-trifluoro-ethoxy)-benzenesulfonyl]-pyrrolidine-2-carboxylic acid (1-cyano-cyclopropyl)-amide]"
9430,0.392,"Cc1cccc(-n2nc(C)cc2N2C[C@H](S(=O)(=O)c3ccccc3C(F)(F)F)C[C@H]2C(=O)NC2(C#N)CC2)c1 [Example 276, (2S,4R)-1-(5-Methyl-2-m-tolyl-2H-pyrazol-3-yl)-4-(2-trifluoromethyl-benzenesulfonyl)-pyrrolidine-2-carboxylic acid (1-cyano-cyclopropyl)-amide]"
445,0.14,"N#CC1(NC(=O)[C@@H]2C[C@@H](S(=O)(=O)c3ccc(OCC(F)(F)F)cc3Cl)CN2C(=O)C2(c3ccc(C(N)=O)cc3)CC2)CC1 [Example 277, (2S,4R)-1-[1-(4-Carbamoyl-phenyl)-cyclopropanecarbonyl]-4-[2-chloro-4-(2,2,2-trifluoro-ethoxy)-benzenesulfonyl]-pyrrolidine-2-carboxylic acid (1-cyano-cyclopropyl)-amide]"
2750,0.003,"N#CC1(NC(=O)[C@@H]2C[C@@H](S(=O)(=O)c3ccc(OCC(F)(F)F)cc3Cl)CN2C(=O)C2(c3ccc(Cl)cc3)CCC2)CC1 [Example 278, (2S,4R)-1-[1-(4-Chloro-phenyl)-cyclobutanecarbonyl]-4-[2-chloro-4-(2,2,2-trifluoro-ethoxy)-benzenesulfonyl]-pyrrolidine-2-carboxylic acid (1-cyano-cyclopropyl)-amide]"
1310,0.02,"CC(C)(C(=O)N1C[C@H](S(=O)(=O)c2ccc(OCC(F)(F)F)cc2Cl)C[C@H]1C(=O)NC1(C#N)CC1)c1ccc(Cl)cc1 [Example 279, (2S,4R)-1-[2-(4-Chloro-phenyl)-2-methyl-propionyl]-4-[2-chloro-4-(2,2,2-trifluoro-ethoxy)-benzenesulfonyl]-pyrrolidine-2-carboxylic acid (1-cyano-cyclopropyl)-amide]"
46500,24.5,"N#CC1(NC(=O)[C@H]2C[C@H](S(=O)(=O)c3ccc(OCC(F)(F)F)cc3Cl)CN2C(=O)C2(C(F)(F)F)CC2)CC1 [Example 280, (2R,4S)-4-[2-Chloro-4-(2,2,2-trifluoro-ethoxy)-benzenesulfonyl]-1-(1-trifluoromethyl-cyclopropanecarbonyl)-pyrrolidine-2-carboxylic acid (1-cyano-cyclopropyl)-amide]"
145,0.28,"N#CC1(NC(=O)[C@@H]2C[C@@H](S(=O)(=O)c3ccccc3Cl)CN2C(=O)C2(c3ccc(OC(F)(F)F)cc3)CC2)CC1 [Example 281, (2S,4R)-4-(2-Chloro-benzenesulfonyl)-1-[1-(4-trifluoromethoxy-phenyl)-cyclopropanecarbonyl]-pyrrolidine-2-carboxylic acid (1-cyano-cyclopropyl)-amide]"
270,0.24,"CC(C)(C(=O)N1C[C@H](S(=O)(=O)c2ccccc2Cl)C[C@H]1C(=O)NC1(C#N)CC1)c1ccc(Cl)cc1 [Example 282, (2S,4R)-4-(2-Chloro-benzenesulfonyl)-1-[2-(4-chloro-phenyl)-2-methyl-propionyl]pyrrolidine-2-carboxylic acid (1-cyano-cyclopropyl)-amide]"
24,0.12,"N#CC1(NC(=O)[C@@H]2C[C@@H](S(=O)(=O)c3ccccc3Cl)CN2C(=O)C2(c3ccc(Cl)cc3)CCC2)CC1 [Example 283, (2S,4R)-4-(2-Chloro-benzenesulfonyl)-1-[1-(4-chloro-phenyl)-cyclobutanecarbonyl]-pyrrolidine-2-carboxylic acid (1-cyano-cyclopropyl)-amide]"
